Experimental data published in paper PMC11047580, “Design and Synthesis of Novel Amino and Acetamidoaurones with Antimicrobial Activities” (Antibiotics, 2024).
≈ marks a conversion by molar mass, not a printed value.

Assays:
B. subtilis ATCC6633 = assay: MIC assay; assay type: cell-based, Bacillus subtilis; conditions: Bacillus subtilis, ATCC6633; two-fold serial dilutions in liquid media; n = 2–3
S. aureus ATCC6538P = assay: MIC assay; assay type: cell-based, Staphylococcus aureus; conditions: Staphylococcus aureus, ATCC6538P; two-fold serial dilutions in liquid media; n = 2–3
E. coli ATCC8739 = assay: MIC assay; assay type: cell-based, Escherichia coli; conditions: Escherichia coli, ATCC8739; two-fold serial dilutions in liquid media; n = 2–3
P. aeruginosa ATCC9027 = assay: MIC assay; assay type: cell-based, Pseudomonas aeruginosa; conditions: two-fold serial dilutions in liquid media, n = 2–3
M. smegmatis ATCC700084 = assay: MIC assay (REMA); assay type: cell-based, Mycobacterium smegmatis; conditions: Mycolicibacterium smegmatis, ATCC700084, REMA microdilution, n = 2–3
C. albicans DSM10697 = assay: MIC assay; assay type: cell-based, Candida albicans; conditions: Candida albicans, DSM10697; two-fold serial dilutions in liquid media; n = 2–3
[1] = system: Bacillus anthracis (CNR-charbon_04022); assay: microbe, parasite or virus in culture; assay type: cell-based; conditions: read-out: MIC Bacillus anthracis (CNR-charbon_04022)
Bacillus cereus (DSM31) = assay: MIC assay; assay type: cell-based; conditions: two-fold serial dilutions in liquid media, n = 2–3
[2] = system: Clostridium botulinum (DSM1985); assay: microbe, parasite or virus in culture; assay type: cell-based; conditions: DSM1985, read-out: MIC Clostridium botulinum (DSM1985)
[3] = system: Clostridium difficile (DSM1296); assay: MIC assay; assay type: cell-based; conditions: Clostridioides difficile, two-fold serial dilutions in liquid media, n = 2–3
[4] = system: Clostridium perfringens (ATCC13124); assay: microbe, parasite or virus in culture; assay type: cell-based; conditions: ATCC13124, read-out: MIC Clostridium perfringens (ATCC13124)
[5] = system: Enterococcus faecalis (DSM2570); assay: MIC assay; assay type: cell-based; conditions: two-fold serial dilutions in liquid media, n = 2–3
[6] = system: Enterococcus faecium (DSM20477); assay: MIC assay; assay type: cell-based; conditions: two-fold serial dilutions in liquid media, n = 2–3
[7] = system: Listeria monocytogenes (DSM20600); assay: MIC assay; assay type: cell-based; conditions: two-fold serial dilutions in liquid media, n = 2–3
[8] = system: Propionibacterium acnes (ATCC6919); assay: MIC assay; assay type: cell-based; conditions: Cutibacterium acnes, two-fold serial dilutions in liquid media, n = 2–3
MRSA (ATCCBAA-1717) = assay: MIC assay; assay type: cell-based, methicillin-resistant S. aureus; conditions: Staphylococcus aureus, read-out: MIC MRSA (ATCCBAA-1717)
[9] = system: Streptococcus pyogenes (DSM20565); assay: MIC assay; assay type: cell-based; conditions: two-fold serial dilutions in liquid media, n = 2–3
[10] = system: Acinetobacter baumannii (DSM30007); assay: MIC assay; assay type: cell-based; conditions: two-fold serial dilutions in liquid media, n = 2–3
[11] = system: Brucella melitensis (NR-256); assay: microbe, parasite or virus in culture; assay type: cell-based; conditions: read-out: MIC Brucella melitensis (NR-256)
[12] = system: Enterobacter cloacae (DSM30054); assay: MIC assay; assay type: cell-based; conditions: two-fold serial dilutions in liquid media, n = 2–3
[13] = system: Francisella tularensis (NR-643); assay: microbe, parasite or virus in culture; assay type: cell-based; conditions: read-out: MIC Francisella tularensis (NR-643)
[14] = system: Helicobacter pylori (ATCC43504); assay: MIC assay; assay type: cell-based; conditions: two-fold serial dilutions in liquid media, n = 2–3
[15] = system: Klebsiella pneumonia (DSM26371); assay: MIC assay; assay type: cell-based; conditions: two-fold serial dilutions in liquid media, n = 2–3
[16] = system: Salmonella enterica (CIP80.39); assay: MIC assay; assay type: cell-based; conditions: two-fold serial dilutions in liquid media, n = 2–3
[17] = system: Shigella flexneri (ATCC12022); assay: MIC assay; assay type: cell-based; conditions: two-fold serial dilutions in liquid media, n = 2–3
[18] = system: Vibrio alginolyticus (DSM2171); assay: MIC assay; assay type: cell-based; conditions: two-fold serial dilutions in liquid media, n = 2–3
Yersinia pestis (NR-641) = assay: microbe, parasite or virus in culture; assay type: cell-based; conditions: read-out: MIC Yersinia pestis (NR-641)
[19] = system: Mycobacterium abscessus S (CIP 104536^T); assay: MIC assay (REMA); assay type: cell-based; conditions: REMA microdilution, n = 2–3
[20] = system: Mycobacterium abscessus R(CIP 104536^T); assay: MIC assay (REMA); assay type: cell-based; conditions: REMA microdilution, n = 2–3
[21] = system: Mycobacterium tuberculosis H37Rv (mc^26230); assay: MIC assay (REMA); assay type: cell-based; conditions: REMA microdilution, n = 2–3
[22] = system: Aspergillus fumigatus (DSM819); assay: MIC assay; assay type: cell-based; conditions: two-fold serial dilutions in liquid media, n = 2–3
[23] = system: Fusarium oxysporum (DSM62316); assay: MIC assay; assay type: cell-based; conditions: two-fold serial dilutions in liquid media, n = 2–3
Candida auris (DSM21092) = assay: MIC assay; assay type: cell-based; conditions: Candidozyma auris, two-fold serial dilutions in liquid media, n = 2–3
[24] = system: Candida glabrata (DSM11226); assay: MIC assay; assay type: cell-based; conditions: Nakaseomyces glabratus, two-fold serial dilutions in liquid media, n = 2–3
[25] = system: Candida tropicalis (DSM9419); assay: MIC assay; assay type: cell-based; conditions: two-fold serial dilutions in liquid media, n = 2–3
[26] = system: Cryptococcus neoformans (DSM11959); assay: MIC assay; assay type: cell-based; conditions: two-fold serial dilutions in liquid media, n = 2–3
[27] = Cytotoxic assay (resazurin); conditions: human, A498 kidney epithelial cells
[28] = Cytotoxic assay (resazurin); conditions: human, BEAS-2B normal lung epithelial cells
[29] = Cytotoxic assay (resazurin); conditions: human, Caco-2
[30] = Cytotoxic assay (resazurin); conditions: human, HaCaT normal epidermal keratinocytes
[31] = Cytotoxic assay (resazurin); conditions: human, HepG2 liver cells
[32] = Cytotoxic assay (resazurin); conditions: human, IMR-90 normal lung fibroblasts
[33] = Cytotoxic assay, summary over the six human cell types; conditions: human, 48 h exposure

Molecule `CC(=O)Nc1ccc2c(c1)C(=O)/C(=C/c1ccc(OC(C)C)cc1)O2` [Compound 20, (Z)-N-(2-(4-isopropoxybenzylidene)-3-oxo-2,3-dihydrobenzofuran-5-yl)acetamide] has an MIC (B. subtilis ATCC6633) of 25 µM (≈ 8.43 µg/mL), an MIC (S. aureus ATCC6538P) of 12.5 µM (≈ 4.22 µg/mL) and an MIC (E. coli ATCC8739) of 25 µM (≈ 8.43 µg/mL). It also gave an MIC (P. aeruginosa ATCC9027; Pseudomonas aeruginosa, ATCC9027) of over 100 µM, an MIC (P. aeruginosa ATCC9027) of over 100 µM and an MIC (M. smegmatis ATCC700084) of 50 µM (≈ 16.9 µg/mL). The MIC (C. albicans DSM10697) was 50 µM (≈ 16.9 µg/mL), the MIC [1] was 6.25 µM (≈ 2.11 µg/mL) and the MIC (Bacillus cereus (DSM31)) was 25 µM (≈ 8.43 µg/mL). The MIC [2] was 3.12 µM (≈ 1.05 µg/mL), the MIC [3] was 3.12 µM (≈ 1.05 µg/mL) and the MIC [4] was over 100 µM. For the same molecule, the MIC [5] was 100 µM (≈ 33.7 µg/mL), the MIC [6] was 25 µM (≈ 8.43 µg/mL) and the MIC [7] was 6.25 µM (≈ 2.11 µg/mL). For the same molecule, the MIC [8] was over 100 µM, the MIC (MRSA (ATCCBAA-1717)) was 25 µM (≈ 8.43 µg/mL) and the MIC [9] was 50 µM (≈ 16.9 µg/mL). The MIC [10] was 25 µM (≈ 8.43 µg/mL), the MIC [11] was 12.5 µM (≈ 4.22 µg/mL) and the MIC ([12]; Enterobacter cloacae, DSM30054) was over 100 µM. The MIC [12] was over 100 µM, the MIC [13] was 12.5 µM (≈ 4.22 µg/mL) and the MIC [14] was 12.5 µM (≈ 4.22 µg/mL). For the same molecule, the MIC ([15]; Klebsiella pneumoniae, DSM26371) was over 100 µM, the MIC [15] was over 100 µM and the MIC [16] was 50 µM (≈ 16.9 µg/mL). The MIC [17] was 50 µM (≈ 16.9 µg/mL), the MIC [18] was 50 µM (≈ 16.9 µg/mL) and the MIC (Yersinia pestis (NR-641)) was 12.5 µM (≈ 4.22 µg/mL). The MIC ([19]; Mycobacteroides abscessus, CIP104536, S morphotype) was over 100 µM, the “MIC Mycobacterium abscessus S (CIP 104536^T)” value ([19]; S morphotype) was “inactive” and the MIC ([20]; Mycobacteroides abscessus, CIP104536, R morphotype) was over 100 µM. The “MIC Mycobacterium abscessus R(CIP 104536^T)” value ([20]; R morphotype) was “inactive”, the MIC ([21]; Mycobacterium tuberculosis, H37RV) was over 100 µM and the “MIC Mycobacterium tuberculosis H37Rv (mc^26230)” value [21] was “inactive”. For the same molecule, the MIC ([22]; Aspergillus fumigatus, DSM819) was over 100 µM, the “MIC Aspergillus fumigatus (DSM819)” value [22] was “inactive” and the MIC [23] was 25 µM (≈ 8.43 µg/mL). It also gave an MIC (Candida auris (DSM21092)) of 12.5 µM (≈ 4.22 µg/mL), an MIC [24] of 50 µM (≈ 16.9 µg/mL) and an MIC [25] of 100 µM (≈ 33.7 µg/mL). The MIC [26] was 25 µM (≈ 8.43 µg/mL), the CC50 at 48 h [27] was 453 µM and the IC50 at 48 h [27] was 453 µM. For the same molecule, the CC50 at 48 h [28] was 126 µM, the IC50 at 48 h [28] was 126 µM and the CC50 at 48 h [29] was 186 µM. For the same molecule, the IC50 at 48 h [29] was 186 µM, the CC50 at 48 h [30] was 323 µM and the IC50 at 48 h [30] was 323 µM. The CC50 at 48 h [31] was over 500 µM, the IC50 at 48 h [31] was over 500 µM and the CC50 at 48 h [32] was 438 µM. For the same molecule, the IC50 at 48 h [32] was 438 µM, the CC50 at 48 h ([33]; Highest CC50, highest of the six human cell types) was over 500 µM and the CC50 at 48 h ([33]; Lowest CC50, lowest of the six human cell types) was 126 µM.
